Data as given in ChEMBL document CHEMBL4665643 (Bioorg Med Chem Lett, 2019).

Columns and labels:
[1] = target: Fibroblast growth factor receptor 1 (Homo sapiens) (UniProt P11362); test: Inhibition of recombinant human His-tagged FGFR1 (308 to 731 residues) expressed in baculovirus expression system using Tyr 01 as substrate at 0.1 uM incubated for 60 mins by Z'-Lyte assay relative to control
[2] = target: Mitogen-activated protein kinase 8 (Homo sapiens) (UniProt P45983); test: Inhibition of recombinant human His-tagged full length JNK1alpha1 expressed in baculovirus expression system using Ser/Thr 04 as substrate at 0.1 uM incubated for 60 mins by Z'-lyte assay relative to control
[3] = target: T1, Serine/threonine-protein kinase TAO2 (Homo sapiens) (UniProt Q9UL54); test: Inhibition of recombinant human GST-tagged TAO2 (1 to 314 residues) expressed in baculovirus expression system using Ser/Thr 07 as substrate at 0.1 uM incubated for 60 mins by Z'-Lyte assay relative to control
T1 sequence (whole entry): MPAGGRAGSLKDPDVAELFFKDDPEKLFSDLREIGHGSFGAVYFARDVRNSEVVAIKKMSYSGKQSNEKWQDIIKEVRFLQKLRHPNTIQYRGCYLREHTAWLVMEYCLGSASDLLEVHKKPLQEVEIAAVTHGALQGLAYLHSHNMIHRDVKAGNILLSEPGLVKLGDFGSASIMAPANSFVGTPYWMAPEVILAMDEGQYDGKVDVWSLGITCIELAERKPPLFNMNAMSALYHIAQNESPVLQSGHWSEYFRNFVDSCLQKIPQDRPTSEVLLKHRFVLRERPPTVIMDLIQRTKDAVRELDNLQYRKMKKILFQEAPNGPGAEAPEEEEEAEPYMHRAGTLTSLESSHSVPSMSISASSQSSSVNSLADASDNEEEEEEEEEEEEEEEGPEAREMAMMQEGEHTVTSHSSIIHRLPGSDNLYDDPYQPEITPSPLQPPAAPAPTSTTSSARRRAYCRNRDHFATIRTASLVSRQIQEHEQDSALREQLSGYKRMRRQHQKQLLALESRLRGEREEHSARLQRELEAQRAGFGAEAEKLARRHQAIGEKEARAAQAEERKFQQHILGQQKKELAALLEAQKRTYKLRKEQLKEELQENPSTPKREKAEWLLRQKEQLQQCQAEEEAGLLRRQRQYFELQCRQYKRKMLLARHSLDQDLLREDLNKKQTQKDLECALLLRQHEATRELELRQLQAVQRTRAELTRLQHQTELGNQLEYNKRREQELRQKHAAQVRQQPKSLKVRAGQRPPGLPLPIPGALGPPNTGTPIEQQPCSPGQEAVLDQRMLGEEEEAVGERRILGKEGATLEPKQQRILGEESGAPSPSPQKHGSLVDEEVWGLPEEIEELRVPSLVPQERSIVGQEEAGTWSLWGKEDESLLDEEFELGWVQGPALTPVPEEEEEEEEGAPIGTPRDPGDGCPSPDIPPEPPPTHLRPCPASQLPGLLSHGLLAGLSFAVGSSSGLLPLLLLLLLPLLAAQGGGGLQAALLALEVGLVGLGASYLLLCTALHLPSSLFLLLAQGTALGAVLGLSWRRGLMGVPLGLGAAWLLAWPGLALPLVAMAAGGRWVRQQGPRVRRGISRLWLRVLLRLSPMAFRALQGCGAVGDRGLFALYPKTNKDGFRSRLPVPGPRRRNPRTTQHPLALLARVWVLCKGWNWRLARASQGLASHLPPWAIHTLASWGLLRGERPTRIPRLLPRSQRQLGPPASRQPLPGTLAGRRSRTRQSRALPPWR

[4] = target: Serine/threonine-protein kinase B-raf (Homo sapiens) (UniProt P15056); test: Inhibition of recombinant human GST-tagged full length BRAF expressed in baculovirus expression system using Ser/Thr 03 as substrate at 0.1 uM incubated for 60 mins by Z'-Lyte assay relative to control
[5] = target: Serine/threonine-protein kinase PAK 1 (Homo sapiens) (UniProt Q13153); test: Inhibition of recombinant human GST-tagged full length PAK1 expressed in baculovirus expression system using Ser/Thr 19 as substrate at 0.1 uM incubated for 60 mins by Z'-lyte assay relative to control
[6] = target: Aurora kinase B (Homo sapiens) (UniProt Q96GD4); test: Inhibition of recombinant human His-tagged full length Aurora B expressed in baculovirus expression system using Ser/Thr 01 as substrate at 0.1 uM incubated for 60 mins by Z'-Lyte assay relative to control
[7] = target: Mitogen-activated protein kinase 11 (Homo sapiens) (UniProt Q15759); test: Inhibition of recombinant human His-tagged full length p38 beta expressed in baculovirus expression system using Ser/Thr 15 as substrate at 0.1 uM incubated for 60 mins by Z'-Lyte assay relative to control
[8] = target: Mitogen-activated protein kinase 1 (Homo sapiens) (UniProt P28482); test: Inhibition of recombinant human GST-tagged full length ERK2 expressed in baculovirus expression system using Ser/Thr 03 as substrate at 0.1 uM incubated for 60 mins by Z'-Lyte assay relative to control
[9] = target: T2, Mitogen-activated protein kinase 12 (Homo sapiens) (UniProt P53778); test: Inhibition of recombinant human His-tagged full length p38 gamma expressed in baculovirus expression system using Ser/Thr 03 as substrate at 0.1 uM incubated for 60 mins by Z'-Lyte assay relative to control
T2 sequence (whole entry): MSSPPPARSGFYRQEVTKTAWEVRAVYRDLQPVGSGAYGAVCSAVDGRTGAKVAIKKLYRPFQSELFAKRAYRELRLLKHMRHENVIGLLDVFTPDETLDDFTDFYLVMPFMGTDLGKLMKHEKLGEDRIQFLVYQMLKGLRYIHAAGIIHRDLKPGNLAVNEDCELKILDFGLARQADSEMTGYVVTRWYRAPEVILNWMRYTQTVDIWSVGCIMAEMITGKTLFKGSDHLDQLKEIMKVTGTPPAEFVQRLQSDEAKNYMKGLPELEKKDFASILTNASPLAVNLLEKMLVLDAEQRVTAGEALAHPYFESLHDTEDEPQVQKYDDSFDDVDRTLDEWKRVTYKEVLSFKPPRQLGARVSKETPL

[10] = target: RAC-alpha serine/threonine-protein kinase (Homo sapiens) (UniProt P31749); test: Inhibition of recombinant human His-tagged full length AKT1 expressed in baculovirus expression system using Ser/Thr 06 as substrate at 0.1 uM incubated for 60 mins by Z'-Lyte assay relative to control
[11] = target: Ribosomal protein S6 kinase alpha-5 (Homo sapiens) (UniProt O75582); test: Inhibition of recombinant human GST-tagged full length MSK1 expressed in baculovirus expression system using Ser/Thr 01 as substrate at 0.1 uM incubated for 60 mins by Z'-lyte assay relative to control
[12] = target: CDK8/Cyclin C (Homo sapiens) (UniProt P49336+P24863); test: Inhibition of tracer 236 binding to recombinant human His-tagged full length CDK8/Cyclin C expressed in baculovirus expression system at 0.1 uM incubated for 60 mins by Lanthascreen assay relative to control
[13] = Lipophilicity, logD of compound; format: physicochemical; settings: octanol/water

Chain of Serine/threonine-protein kinase PAK 1 (Homo sapiens) (Q13153 whole entry): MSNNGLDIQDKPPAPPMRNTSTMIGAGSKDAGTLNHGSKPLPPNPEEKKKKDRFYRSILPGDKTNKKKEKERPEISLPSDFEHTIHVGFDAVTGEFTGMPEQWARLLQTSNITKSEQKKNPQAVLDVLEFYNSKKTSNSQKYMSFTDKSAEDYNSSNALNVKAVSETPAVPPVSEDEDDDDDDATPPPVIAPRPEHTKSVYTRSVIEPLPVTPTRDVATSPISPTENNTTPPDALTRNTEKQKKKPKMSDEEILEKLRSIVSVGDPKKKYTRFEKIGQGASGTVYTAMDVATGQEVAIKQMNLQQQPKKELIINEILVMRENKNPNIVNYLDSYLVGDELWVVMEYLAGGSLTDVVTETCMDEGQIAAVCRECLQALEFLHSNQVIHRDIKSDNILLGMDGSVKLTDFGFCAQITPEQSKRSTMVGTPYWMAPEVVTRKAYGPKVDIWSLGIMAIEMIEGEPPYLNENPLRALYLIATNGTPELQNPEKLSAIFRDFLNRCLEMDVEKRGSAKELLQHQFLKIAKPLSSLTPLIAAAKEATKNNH
Chain of Serine/threonine-protein kinase B-raf (Homo sapiens) (P15056 whole entry): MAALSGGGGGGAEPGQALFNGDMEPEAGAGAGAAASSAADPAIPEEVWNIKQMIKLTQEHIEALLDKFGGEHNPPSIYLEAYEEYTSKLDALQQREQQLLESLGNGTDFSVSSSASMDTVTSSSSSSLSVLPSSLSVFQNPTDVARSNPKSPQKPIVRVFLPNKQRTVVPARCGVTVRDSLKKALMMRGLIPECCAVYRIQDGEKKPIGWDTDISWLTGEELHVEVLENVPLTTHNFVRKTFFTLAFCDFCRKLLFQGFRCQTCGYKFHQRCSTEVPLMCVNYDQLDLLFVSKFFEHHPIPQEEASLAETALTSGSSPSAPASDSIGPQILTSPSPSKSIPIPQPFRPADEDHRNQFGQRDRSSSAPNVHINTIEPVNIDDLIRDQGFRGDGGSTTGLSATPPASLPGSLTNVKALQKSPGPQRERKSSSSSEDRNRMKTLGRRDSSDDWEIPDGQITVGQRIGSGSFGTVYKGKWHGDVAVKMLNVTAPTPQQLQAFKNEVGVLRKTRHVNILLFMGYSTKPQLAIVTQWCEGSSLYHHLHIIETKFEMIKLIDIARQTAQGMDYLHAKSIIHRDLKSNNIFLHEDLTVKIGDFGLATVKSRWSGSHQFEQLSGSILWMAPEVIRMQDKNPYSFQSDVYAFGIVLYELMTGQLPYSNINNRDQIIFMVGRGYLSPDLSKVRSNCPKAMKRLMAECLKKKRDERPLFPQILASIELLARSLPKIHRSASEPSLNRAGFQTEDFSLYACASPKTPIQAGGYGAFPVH
Chain of Mitogen-activated protein kinase 1 (Homo sapiens) (P28482 whole entry): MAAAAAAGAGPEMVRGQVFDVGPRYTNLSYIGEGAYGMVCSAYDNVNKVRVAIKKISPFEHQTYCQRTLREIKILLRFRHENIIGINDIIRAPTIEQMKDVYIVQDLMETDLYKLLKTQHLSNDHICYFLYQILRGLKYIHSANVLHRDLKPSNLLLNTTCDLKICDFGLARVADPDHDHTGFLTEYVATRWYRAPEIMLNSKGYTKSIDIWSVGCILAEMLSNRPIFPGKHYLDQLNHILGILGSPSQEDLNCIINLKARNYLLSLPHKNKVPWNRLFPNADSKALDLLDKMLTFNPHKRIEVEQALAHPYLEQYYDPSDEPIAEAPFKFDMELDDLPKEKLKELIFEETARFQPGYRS
Chain of Ribosomal protein S6 kinase alpha-5 (Homo sapiens) (O75582 whole entry, looked up): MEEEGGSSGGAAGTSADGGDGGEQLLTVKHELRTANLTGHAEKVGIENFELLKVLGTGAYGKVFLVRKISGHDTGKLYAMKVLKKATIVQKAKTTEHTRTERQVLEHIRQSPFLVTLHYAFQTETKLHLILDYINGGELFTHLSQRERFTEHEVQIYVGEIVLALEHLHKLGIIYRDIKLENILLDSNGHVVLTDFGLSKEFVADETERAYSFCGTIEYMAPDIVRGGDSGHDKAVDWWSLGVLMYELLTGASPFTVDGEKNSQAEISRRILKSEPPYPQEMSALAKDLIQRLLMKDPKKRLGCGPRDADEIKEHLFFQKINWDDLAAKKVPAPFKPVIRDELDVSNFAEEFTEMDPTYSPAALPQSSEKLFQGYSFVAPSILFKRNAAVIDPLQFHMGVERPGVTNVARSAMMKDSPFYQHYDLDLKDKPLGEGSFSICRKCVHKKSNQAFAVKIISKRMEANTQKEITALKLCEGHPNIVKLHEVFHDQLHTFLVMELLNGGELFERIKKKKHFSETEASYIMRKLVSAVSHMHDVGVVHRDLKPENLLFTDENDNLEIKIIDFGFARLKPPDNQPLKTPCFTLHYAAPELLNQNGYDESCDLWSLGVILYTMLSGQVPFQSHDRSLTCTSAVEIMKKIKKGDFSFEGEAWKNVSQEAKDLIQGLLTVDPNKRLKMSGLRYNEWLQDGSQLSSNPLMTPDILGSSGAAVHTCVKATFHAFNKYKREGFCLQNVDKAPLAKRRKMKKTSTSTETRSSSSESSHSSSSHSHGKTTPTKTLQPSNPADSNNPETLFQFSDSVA
Chain of Mitogen-activated protein kinase 11 (Homo sapiens) (Q15759 whole entry): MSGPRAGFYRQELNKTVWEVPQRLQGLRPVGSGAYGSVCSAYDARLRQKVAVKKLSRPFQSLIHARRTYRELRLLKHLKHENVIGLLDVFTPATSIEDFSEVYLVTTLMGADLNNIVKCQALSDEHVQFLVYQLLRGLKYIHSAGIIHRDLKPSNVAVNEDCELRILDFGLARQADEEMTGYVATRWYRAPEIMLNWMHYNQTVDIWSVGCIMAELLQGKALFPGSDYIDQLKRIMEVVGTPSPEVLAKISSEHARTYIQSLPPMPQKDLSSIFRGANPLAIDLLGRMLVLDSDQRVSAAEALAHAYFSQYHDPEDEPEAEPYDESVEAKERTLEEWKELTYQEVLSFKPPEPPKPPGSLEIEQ
Chain of Fibroblast growth factor receptor 1 (Homo sapiens) (P11362 22-822 limits assumed): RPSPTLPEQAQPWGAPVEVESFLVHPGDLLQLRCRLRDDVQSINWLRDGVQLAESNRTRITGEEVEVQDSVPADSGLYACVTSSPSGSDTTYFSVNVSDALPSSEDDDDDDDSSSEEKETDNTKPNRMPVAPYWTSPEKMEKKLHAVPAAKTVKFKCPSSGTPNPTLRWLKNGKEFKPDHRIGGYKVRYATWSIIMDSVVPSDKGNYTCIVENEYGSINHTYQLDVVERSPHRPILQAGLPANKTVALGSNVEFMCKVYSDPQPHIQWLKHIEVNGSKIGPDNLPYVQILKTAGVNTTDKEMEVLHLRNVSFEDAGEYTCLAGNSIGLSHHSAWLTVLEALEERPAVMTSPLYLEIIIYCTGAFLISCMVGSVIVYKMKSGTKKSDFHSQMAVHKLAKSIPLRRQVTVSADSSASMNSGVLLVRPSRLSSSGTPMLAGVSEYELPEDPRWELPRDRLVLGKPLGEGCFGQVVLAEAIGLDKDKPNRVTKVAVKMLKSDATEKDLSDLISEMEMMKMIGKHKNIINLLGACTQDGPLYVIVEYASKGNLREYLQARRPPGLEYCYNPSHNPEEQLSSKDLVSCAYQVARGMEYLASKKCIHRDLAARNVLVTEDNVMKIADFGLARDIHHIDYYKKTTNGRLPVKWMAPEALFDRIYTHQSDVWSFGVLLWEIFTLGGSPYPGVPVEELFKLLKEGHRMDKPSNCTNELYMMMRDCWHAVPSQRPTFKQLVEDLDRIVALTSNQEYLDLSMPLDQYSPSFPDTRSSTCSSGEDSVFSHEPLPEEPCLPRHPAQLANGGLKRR
Chain of RAC-alpha serine/threonine-protein kinase (Homo sapiens) (P31749 whole entry): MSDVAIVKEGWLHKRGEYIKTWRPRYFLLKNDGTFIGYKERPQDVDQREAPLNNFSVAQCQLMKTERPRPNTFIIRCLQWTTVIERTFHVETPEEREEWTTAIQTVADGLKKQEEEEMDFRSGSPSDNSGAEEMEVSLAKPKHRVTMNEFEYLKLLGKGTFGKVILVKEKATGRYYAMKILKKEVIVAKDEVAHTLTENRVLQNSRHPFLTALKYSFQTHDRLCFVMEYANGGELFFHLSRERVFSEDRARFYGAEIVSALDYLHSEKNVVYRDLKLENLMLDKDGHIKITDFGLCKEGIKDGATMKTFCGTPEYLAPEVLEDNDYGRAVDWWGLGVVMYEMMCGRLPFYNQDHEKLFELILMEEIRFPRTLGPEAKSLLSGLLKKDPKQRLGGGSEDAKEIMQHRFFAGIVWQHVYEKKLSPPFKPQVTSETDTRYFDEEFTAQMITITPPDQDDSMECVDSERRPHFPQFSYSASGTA
Chain of Aurora kinase B (Homo sapiens) (Q96GD4 whole entry): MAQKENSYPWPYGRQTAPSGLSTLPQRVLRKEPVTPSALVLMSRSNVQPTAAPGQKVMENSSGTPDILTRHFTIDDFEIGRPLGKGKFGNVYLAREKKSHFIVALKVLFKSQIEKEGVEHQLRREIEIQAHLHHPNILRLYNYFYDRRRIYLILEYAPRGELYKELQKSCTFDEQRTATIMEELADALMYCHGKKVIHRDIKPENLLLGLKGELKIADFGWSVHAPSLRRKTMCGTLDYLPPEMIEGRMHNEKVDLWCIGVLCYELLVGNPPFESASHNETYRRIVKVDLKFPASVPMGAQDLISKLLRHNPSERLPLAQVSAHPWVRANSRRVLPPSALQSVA
Chain of Mitogen-activated protein kinase 8 (Homo sapiens) (P45983 whole entry, the tested form may be a part): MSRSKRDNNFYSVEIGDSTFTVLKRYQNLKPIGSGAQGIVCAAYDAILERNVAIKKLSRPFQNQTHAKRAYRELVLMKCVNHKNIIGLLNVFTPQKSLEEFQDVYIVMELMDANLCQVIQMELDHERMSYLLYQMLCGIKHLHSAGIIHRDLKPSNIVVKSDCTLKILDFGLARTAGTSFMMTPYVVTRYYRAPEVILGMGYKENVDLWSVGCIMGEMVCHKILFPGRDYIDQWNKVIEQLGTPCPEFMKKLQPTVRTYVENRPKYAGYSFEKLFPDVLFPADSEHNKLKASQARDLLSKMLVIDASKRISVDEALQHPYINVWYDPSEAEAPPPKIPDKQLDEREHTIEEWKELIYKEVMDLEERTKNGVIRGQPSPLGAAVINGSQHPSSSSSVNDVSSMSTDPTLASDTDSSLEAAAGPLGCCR

| Compound | inhibition [1] | inhibition [2] | inhibition [3] | inhibition [4] | inhibition [5] | inhibition [6] | inhibition [7] | inhibition [8] | inhibition [9] | inhibition [10] | inhibition [11] | inhibition [12] | logD [13] |
| --- | --- | --- | --- | --- | --- | --- | --- | --- | --- | --- | --- | --- | --- |
| O=C(Nc1c[nH]nc1-c1cc2ccccc2cc1OC(F)F)c1cnn2cccnc12 | 1% | -5% | 8% | 4% | -7% | 5% | 5% | -4% | 5% | -5% | -2% | 24% | 3.5 |
| O=C(Nc1c[nH]nc1-c1cc(Cl)ccc1OC(F)F)c1cnn2cccnc12 | -1% | 11% | 1% | 1% | 12% | 3% | 9% | 1% | -1% | 1% | 3% | 38% | 3.2 |
| Cn1cc(NC(=O)c2cnn3cccnc23)c(-c2cc(Cl)ccc2OC(F)F)n1 | 6% | 11% | 4% | 5% | 2% | 1% | 11% | 4% | 4% | -6% | 5% | 14% | 3 |
